Laboratory results as given in USRE48097E1, “Cephem compounds, their production and use” (priority 2015, dated 2020).
In brackets after ≈: the same amount, converted by molar mass. Where two headings read alike, the source gives them in different places.

Columns and labels:
Type in all cases: cell-based
S. aureus 3132 = assay: MIC against S. aureus 3132; conditions: Table 2, S. aureus 3132, MSSA
Text: (§1) Without limitation, the present cephem compounds alone, or in combination with one or more β-lactamase inhibitors, may provide improved antibacterial efficacy, particularly in antibiotic-resistant bacterial strains. It is believed that the present compounds may be structurally different from known compounds and, as a result, may be more basic in nature. It is an advantage that the present compounds may extend the spectrum of effective bacterial compounds, particularly against previously-resistant bacteria (e.g. ESKAPE organisms), and/or gram negative bacteria, without significant side effects. In a preferred embodiment, the present cephem compound may comprise reference compound ceftazidime, which may be used alone, or in combination with one or more β-lactamase inhibitors, such as NXL-104. As shown, the foregoing composition was tested for minimum inhibitory concentration (MIC, μg/mL) against bacteria listed in Tables 2-3.

S. pneumoniae 2405 = assay: MIC against S. pneumoniae 2405; conditions: Table 2, S. pneumoniae 2405, Pen S
Text: as §1

S. pneumoniae 2407 = assay: MIC against S. pneumoniae 2407; conditions: Table 2, S. pneumoniae 2407, Pen S
Text: as §1

E. cloacae 2704 = assay: MIC against E. cloacae 2704; conditions: Table 2, E. cloacae 2704, P99
Text: as §1

E. cloacae 552 = assay: MIC against E. cloacae 552; conditions: Table 2, E. cloacae 552, Caz S, IMP S
Text: as §1

E. cloacae 566 = assay: MIC against E. cloacae 566; conditions: Table 2, E. cloacae 566, Caz R, IMP S
Text: as §1

K. pneumoniae 4105 = assay: MIC against K. pneumoniae 4105; conditions: K. pneumoniae 4105, KPC-3, TEM-1, SHV-11
Method: (§2) As shown, the foregoing composition was tested for minimum inhibitory concentration (MIC, μg/mL) against bacteria listed in Tables 2-3.

K. pneumoniae 4106 = assay: MIC against K. pneumoniae 4106; conditions: K. pneumoniae 4106, KPC-3, TEM-1, SHV-12, SHV-141
Method: as §2

K. pneumoniae 4108 = assay: MIC against K. pneumoniae 4108; conditions: K. pneumoniae 4108, KPC-3, TEM-166, SHV-12, SHV-141
Method: as §2

K. pneumoniae 4109 = assay: MIC against K. pneumoniae 4109; conditions: Table 2, K. pneumoniae 4109, SHV-1, SHV-12
Text: as §1

E. coli 4080 = assay: MIC against E. coli 4080; conditions: Table 2, E. coli 4080, TEM-10
Text: as §1

E. coli 4101 = assay: MIC against E. coli 4101; conditions: Table 2, E. coli 4101, CTX-M-14, TEM-1
Text: as §1

K. baumanii 4091 = assay: MIC against K. baumanii 4091; conditions: Table 2, K. baumanii 4091, OXA-23
Text: as §1

K. baumanii 4094 = assay: MIC against K. baumanii 4094; conditions: Table 2, K. baumanii 4094, OXA-51
Text: as §1

K. baumanii 4095 = assay: MIC against K. baumanii 4095; conditions: Table 2, K. baumanii 4095, OXA-48
Text: as §1

E. cloacae 2705 = assay: MIC against E. cloacae 2705; conditions: Table 3, E. cloacae 2705, VIM-1, KPC-3type
Method: as §2

E. cloacae 2709 = assay: MIC against E. cloacae 2709; conditions: Table 3, E. cloacae 2709, KPC-3, VIM-1
Method: as §2

E. cloacae 2710 = assay: MIC against E. cloacae 2710; conditions: Table 3, E. cloacae 2710, KPC-3, VIM-1
Method: as §2

E. coli 2666 = assay: MIC against E. coli 2666; conditions: Table 3, E. coli 2666, KPC-2
Method: as §2

K. pneumoniae 2690 = assay: MIC against K. pneumoniae 2690; conditions: Table 3, K. pneumoniae 2690, KPC-2
Method: as §2

K. pneumoniae 2711 = assay: MIC against K. pneumoniae 2711; conditions: Table 3, K. pneumoniae 2711, KPC-3, VIM-1
Method: as §2

K. pneumoniae 2713 = assay: MIC against K. pneumoniae 2713; conditions: Table 3, K. pneumoniae 2713, KPC-3, VIM-1
Method: as §2

P. aeruginosa 2686 = assay: MIC against P. aeruginosa 2686; conditions: Table 3, P. aeruginosa 2686, KPC-2
Method: as §2

[1] = Streptococcus pneumoniae, alone, read-out: MIC
[2] = Enterobacter cloacae, alone, read-out: MIC
[3] = Klebsiella pneumoniae, 4105, Table 2, alone, read-out: MIC
[4] = Klebsiella pneumoniae, 4105, Table 3, alone, read-out: MIC
[5] = Table 2, in combination with NXL-104
[6] = Table 3, in combination with NXL-104
[7] = Klebsiella pneumoniae, 4106, Table 2, alone, read-out: MIC
[8] = Klebsiella pneumoniae, 4106, Table 3, alone, read-out: MIC
[9] = Klebsiella pneumoniae, 4108, Table 2, alone, read-out: MIC
[10] = Klebsiella pneumoniae, 4108, Table 3, alone, read-out: MIC
[11] = Klebsiella pneumoniae, alone, read-out: MIC
[12] = Escherichia coli, alone, read-out: MIC
[13] = Pseudomonas aeruginosa, alone, read-out: MIC

Work on `CC(C)(O/N=C(\C(=O)N[C@@H]1C(=O)N2C(C(=O)[O-])=C(C[n+]3ccc4c(ccn4Cc4cc(C(=N)N)co4)c3)CS[C@H]12)c1csc(N)n1)C(=O)O` [Example 6, (6R,7R)-7-{[(2Z)-2-(2-Amino-1,3-thiazol-4-yl)-2-{[(2-carboxypropan-2-yl)oxy]imino}acetyl]amino}-3-({1-[(4-carbamimidoylfuran-2-yl)methyl]-1H-pyrrolo[3,2-c]pyridin-5-ium-5-yl}methyl)-8-oxo-5-thia-1-azabicyclo[4.2.0]oct-2-ene-2-carboxylate] yielded an MIC (S. aureus 3132; Staphylococcus aureus, alone, read-out: MIC) of 4 µg/mL, an MIC (S. aureus 3132; in combination with NXL-104) of 4.00 µg/mL and an MIC (S. pneumoniae 2405; [1]) of at most 0.06 µg/mL. For the same molecule, the MIC (S. pneumoniae 2405; in combination with NXL-104) was at most 0.06 µg/mL, the MIC (S. pneumoniae 2407; [1]) was at most 0.06 µg/mL and the MIC (S. pneumoniae 2407; in combination with NXL-104) was at most 0.06 µg/mL. It also gave an MIC (E. cloacae 2704; [2]) of 32 µg/mL, an MIC (E. cloacae 2704; in combination with NXL-104) of 1.00 µg/mL and an MIC (E. cloacae 552; [2]) of 0.12 µg/mL. For the same molecule, the MIC (E. cloacae 552; in combination with NXL-104) was 0.25 µg/mL, the MIC (E. cloacae 566; [2]) was 4 µg/mL and the MIC (E. cloacae 566; in combination with NXL-104) was 0.50 µg/mL. It also gave an MIC (K. pneumoniae 4105; [3]) of 32 µg/mL (≈ 45.2 µM), an MIC (K. pneumoniae 4105; [4]) of 32 µg/mL (≈ 45.2 µM) and an MIC (K. pneumoniae 4105; [5]) of 1.00 µg/mL. The MIC (K. pneumoniae 4105; [6]) was 2 µg/mL, the MIC (K. pneumoniae 4106; [7]) was 16 µg/mL (≈ 22.6 µM) and the MIC (K. pneumoniae 4106; [8]) was 32 µg/mL (≈ 45.2 µM). For the same molecule, the MIC (K. pneumoniae 4106; [5]) was 1.00 µg/mL, the MIC (K. pneumoniae 4106; [6]) was 2 µg/mL and the MIC (K. pneumoniae 4108; [9]) was 16 µg/mL (≈ 22.6 µM). It also gave an MIC (K. pneumoniae 4108; [10]) of 32 µg/mL (≈ 45.2 µM), an MIC (K. pneumoniae 4108; [5]) of 0.50 µg/mL and an MIC (K. pneumoniae 4108; [6]) of 1 µg/mL. The MIC (K. pneumoniae 4109; [11]) was 8 µg/mL, the MIC (K. pneumoniae 4109; in combination with NXL-104) was 0.12 µg/mL and the MIC (E. coli 4080; [12]) was 16 µg/mL. It also gave an MIC (E. coli 4080; in combination with NXL-104) of 0.50 µg/mL, an MIC (E. coli 4101; [12]) of 0.5 µg/mL and an MIC (E. coli 4101; in combination with NXL-104) of at most 0.06 µg/mL. For the same molecule, the MIC (K. baumanii 4091; alone, read-out: MIC) was 16 µg/mL, the MIC (K. baumanii 4091; in combination with NXL-104) was 4.00 µg/mL and the MIC (K. baumanii 4094; alone, read-out: MIC) was 16 µg/mL. It also gave an MIC (K. baumanii 4094; in combination with NXL-104) of 8.00 µg/mL, an MIC (K. baumanii 4095; alone, read-out: MIC) of 0.12 µg/mL and an MIC (K. baumanii 4095; in combination with NXL-104) of 0.25 µg/mL. It also gave an MIC (E. cloacae 2705; [2]) of over 32 µg/mL, an MIC (E. cloacae 2705; in combination with NXL-104) of over 32 µg/mL and an MIC (E. cloacae 2709; [2]) of 32 µg/mL (≈ 45.2 µM). For the same molecule, the MIC (E. cloacae 2709; in combination with NXL-104) was 4 µg/mL, the MIC (E. cloacae 2710; [2]) was over 32 µg/mL and the MIC (E. cloacae 2710; in combination with NXL-104) was over 32 µg/mL. For the same molecule, the MIC (E. coli 2666; [12]) was 16 µg/mL (≈ 22.6 µM), the MIC (E. coli 2666; in combination with NXL-104) was 1 µg/mL and the MIC (K. pneumoniae 2690; [11]) was 16 µg/mL (≈ 22.6 µM). For the same molecule, the MIC (K. pneumoniae 2690; in combination with NXL-104) was 1 µg/mL, the MIC (K. pneumoniae 2711; [11]) was 4 µg/mL (≈ 5.65 µM) and the MIC (K. pneumoniae 2711; in combination with NXL-104) was 0.5 µg/mL. It also gave an MIC (K. pneumoniae 2713; [11]) of over 32 µg/mL, an MIC (K. pneumoniae 2713; in combination with NXL-104) of 2 µg/mL and an MIC (P. aeruginosa 2686; [13]) of 32 µg/mL (≈ 45.2 µM). For the same molecule, the MIC (P. aeruginosa 2686; in combination with NXL-104) was 8 µg/mL.

With `CC(C)(O/N=C(\C(=O)N[C@@H]1C(=O)N2C(C(=O)[O-])=C(C[n+]3ccc4c(ccn4Cc4ccc(C(=N)N)cc4)c3)CS[C@H]12)c1csc(N)n1)C(=O)O` [Ex-1, (6R,7R)-7-{[(2Z)-2-(2-Amino-1,3-thiazol-4-yl)-2-{[(2-carboxypropan-2-yl)oxy]imino}acetyl]-amino}-3-{[1-(4-carbamimidoylbenzyl)-1H-pyrrolo[3,2-c]pyridin-5-ium-5-yl]methyl}-8-oxo-5-thia-1-azabicyclo[4.2.0]oct-2-ene-2-carboxylate] the MIC (S. pneumoniae 2405; [1]) was at most 0.06 µg/mL, the MIC (S. pneumoniae 2407; [1]) was 0.12 µg/mL and the MIC (E. cloacae 2704; [2]) was 16 µg/mL. It also gave an MIC (E. cloacae 552; [2]) of 0.12 µg/mL, an MIC (E. cloacae 566; [2]) of 4 µg/mL and an MIC (K. pneumoniae 4105; [3]) of 16 µg/mL (≈ 22.3 µM). It also gave an MIC (K. pneumoniae 4105; [4]) of 32 µg/mL (≈ 44.6 µM), an MIC (K. pneumoniae 4106; [7]) of 8 µg/mL (≈ 11.1 µM) and an MIC (K. pneumoniae 4106; [8]) of 32 µg/mL (≈ 44.6 µM). For the same molecule, the MIC (K. pneumoniae 4108; [9]) was 4 µg/mL (≈ 5.57 µM), the MIC (K. pneumoniae 4108; [10]) was 32 µg/mL (≈ 44.6 µM) and the MIC (K. pneumoniae 4109; [11]) was 2 µg/mL. The MIC (E. coli 4080; [12]) was 4 µg/mL, the MIC (E. coli 4101; [12]) was 0.5 µg/mL and the MIC (K. baumanii 4091; alone, read-out: MIC) was 16 µg/mL. For the same molecule, the MIC (K. baumanii 4094; alone, read-out: MIC) was 16 µg/mL, the MIC (K. baumanii 4095; alone, read-out: MIC) was 0.5 µg/mL and the MIC (E. cloacae 2705; [2]) was over 32 µg/mL. It also gave an MIC (E. cloacae 2709; [2]) of 32 µg/mL (≈ 44.6 µM), an MIC (E. cloacae 2710; [2]) of over 32 µg/mL and an MIC (E. coli 2666; [12]) of 32 µg/mL (≈ 44.6 µM). It also gave an MIC (K. pneumoniae 2690; [11]) of 32 µg/mL (≈ 44.6 µM), an MIC (K. pneumoniae 2711; [11]) of 4 µg/mL (≈ 5.57 µM) and an MIC (K. pneumoniae 2713; [11]) of over 32 µg/mL. The MIC (P. aeruginosa 2686; [13]) was over 32 µg/mL.
